According to paper PMC7096432, “Transport and kinase activities of CbrA of Pseudomonas putida KT2440” (Scientific Reports, 2020):
Values belong to the molecule of their own block, whether it stands above or below them.

Legend:
[1] = molecular target: T1, CbrAΔSLC5 (Pseudomonas putida, UniProt Q88DX3); assay: autophosphorylation, SDS-PAGE; assay type: biochemical; settings: 50 mM Tris-HCl pH 7.5, 10 mM MgCl2, 360 mM KCl, 30 °C; labelled compound
T1 construct: gene PP_4695; cytoplasmic domains, residues 614-992, C-terminal 12His tag, 44 kDa predicted, E. coli C41, Ni-NTA purified
T1 sequence (Q88DX3 614-991): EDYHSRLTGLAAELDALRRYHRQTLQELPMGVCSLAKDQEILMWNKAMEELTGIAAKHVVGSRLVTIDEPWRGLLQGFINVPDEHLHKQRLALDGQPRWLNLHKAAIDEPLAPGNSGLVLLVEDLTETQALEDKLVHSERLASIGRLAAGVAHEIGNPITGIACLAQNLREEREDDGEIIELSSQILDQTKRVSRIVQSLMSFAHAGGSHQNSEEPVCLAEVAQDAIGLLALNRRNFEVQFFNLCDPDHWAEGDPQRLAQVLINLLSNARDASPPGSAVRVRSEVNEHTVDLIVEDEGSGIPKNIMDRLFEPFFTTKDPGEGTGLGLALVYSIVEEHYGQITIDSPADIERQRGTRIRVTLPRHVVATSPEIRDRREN

[2] = molecular target: T2, CbrA (Pseudomonas putida, UniProt Q88DX3); assay: DRaCALA, E. coli C43 membrane vesicles; assay type: binding; settings: 1.35 µM ligand, 100 mM KPi pH 7.5, 25 °C; labelled compound
T2 construct: gene PP_4695; full length, 109 kDa predicted
T2 sequence (Q88DX3 1-991): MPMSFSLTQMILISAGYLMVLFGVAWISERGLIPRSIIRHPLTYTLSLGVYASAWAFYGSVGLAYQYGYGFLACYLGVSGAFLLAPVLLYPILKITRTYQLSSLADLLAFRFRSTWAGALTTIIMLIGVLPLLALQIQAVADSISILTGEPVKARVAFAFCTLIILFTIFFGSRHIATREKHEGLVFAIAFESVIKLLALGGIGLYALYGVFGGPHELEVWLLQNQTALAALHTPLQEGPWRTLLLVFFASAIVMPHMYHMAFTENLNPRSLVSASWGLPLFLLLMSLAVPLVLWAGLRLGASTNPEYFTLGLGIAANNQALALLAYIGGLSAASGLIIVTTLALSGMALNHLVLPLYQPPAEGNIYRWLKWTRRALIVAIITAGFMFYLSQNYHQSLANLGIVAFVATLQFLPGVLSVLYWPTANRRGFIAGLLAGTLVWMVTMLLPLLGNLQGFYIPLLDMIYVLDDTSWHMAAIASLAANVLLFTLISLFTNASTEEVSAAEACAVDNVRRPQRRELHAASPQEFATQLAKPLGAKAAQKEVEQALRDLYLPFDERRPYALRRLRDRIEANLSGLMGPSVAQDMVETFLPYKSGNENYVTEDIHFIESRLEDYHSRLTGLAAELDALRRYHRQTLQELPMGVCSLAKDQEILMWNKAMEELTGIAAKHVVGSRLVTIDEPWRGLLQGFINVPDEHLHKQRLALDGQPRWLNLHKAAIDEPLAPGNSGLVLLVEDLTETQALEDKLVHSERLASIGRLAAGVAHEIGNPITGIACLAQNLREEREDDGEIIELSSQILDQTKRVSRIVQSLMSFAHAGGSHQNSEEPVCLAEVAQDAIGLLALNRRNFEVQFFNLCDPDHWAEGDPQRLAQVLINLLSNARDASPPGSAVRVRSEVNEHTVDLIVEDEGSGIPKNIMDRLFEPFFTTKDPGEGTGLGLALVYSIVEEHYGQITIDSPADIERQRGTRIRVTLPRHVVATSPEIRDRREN

[3] = molecular target: T3, PAS domain of CbrA (Pseudomonas putida, UniProt Q88DX3); assay: thermal shift titration, nanoDSF; assay type: binding
T3 construct: gene PP_4695; PAS domain, residues 614-745, C-terminal 12His tag, E. coli BL21 / C43, Ni-NTA purified
T3 sequence (Q88DX3 614-745): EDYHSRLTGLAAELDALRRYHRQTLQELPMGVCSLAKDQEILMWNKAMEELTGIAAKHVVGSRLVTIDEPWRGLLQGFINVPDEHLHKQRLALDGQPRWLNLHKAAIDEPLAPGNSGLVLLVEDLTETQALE

[4] = molecular target: T3, PAS domain of CbrA; assay: thermal shift, nanoDSF; assay type: binding; settings: read-out: dTm at 1 mM
[5] = molecular target: T4, SLC5 domain of CbrA (Pseudomonas putida, UniProt Q88DX3); assay: DRaCALA, E. coli C43 membrane vesicles; assay type: binding; settings: 1.35 µM ligand, 100 mM KPi pH 7.5, 25 °C; labelled compound
T4 construct: gene PP_4695; SLC5 transporter domain, residues 3-544
T4 sequence (Q88DX3 3-544): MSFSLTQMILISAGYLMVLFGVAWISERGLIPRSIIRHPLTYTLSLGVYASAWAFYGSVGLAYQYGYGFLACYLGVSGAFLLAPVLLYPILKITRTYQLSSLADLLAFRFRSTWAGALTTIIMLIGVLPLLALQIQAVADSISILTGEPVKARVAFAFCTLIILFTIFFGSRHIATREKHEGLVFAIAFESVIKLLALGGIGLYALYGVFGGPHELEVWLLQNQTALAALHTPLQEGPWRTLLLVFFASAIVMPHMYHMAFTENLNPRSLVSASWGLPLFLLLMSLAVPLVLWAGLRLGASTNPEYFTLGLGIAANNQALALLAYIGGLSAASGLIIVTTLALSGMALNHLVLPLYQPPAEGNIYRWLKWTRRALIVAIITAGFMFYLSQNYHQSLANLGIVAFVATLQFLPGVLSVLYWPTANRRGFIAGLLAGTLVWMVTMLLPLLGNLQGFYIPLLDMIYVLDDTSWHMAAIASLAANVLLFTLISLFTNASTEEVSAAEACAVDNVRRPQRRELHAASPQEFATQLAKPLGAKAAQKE

[6] = substrate: N[C@@H](Cc1c[nH]cn1)C(=O)O; assay: 3H-L-histidine uptake into P. putida LW1 cells; assay type: cell-based, Pseudomonas putida; settings: transport, 100 mM Tris/MES pH 6.0, 25 °C, energized with 10 mM D-lactate, background subtracted, labelled compound

Molecule: Nc1ncnc2c1ncn2[C@@H]1O[C@H](COP(=O)(O)OP(=O)(O)OP(=O)(O)O)[C@@H](O)[C@H]1O [γ-32P-ATP]
- autophosphorylation, 32P SDS-PAGE [1]: catalyzed both autophosphorylation and transfer of the phosphoryl group to CbrB

- Kd [3]: 43 ± 13 µM
- ΔTm at 1000 µM [4]: 0.73 ± 0.13 °C
Molecule: N[C@@H](Cc1cnc[nH]1)C(=O)O [L-histidine]
- bound fraction [2]: evidence for binding of ^3H-L-histidine to CbrA and the SLC5 domain
- bound fraction [5]: evidence for binding of ^3H-L-histidine to CbrA and the SLC5 domain

B1: CbrA (Pseudomonas putida KT2440) (protein)
chain: MPMSFSLTQMILISAGYLMVLFGVAWISERGLIPRSIIRHPLTYTLSLGVYASAWAFYGSVGLAYQYGYGFLACYLGVSGAFLLAPVLLYPILKITRTYQLSSLADLLAFRFRSTWAGALTTIIMLIGVLPLLALQIQAVADSISILTGEPVKARVAFAFCTLIILFTIFFGSRHIATREKHEGLVFAIAFESVIKLLALGGIGLYALYGVFGGPHELEVWLLQNQTALAALHTPLQEGPWRTLLLVFFASAIVMPHMYHMAFTENLNPRSLVSASWGLPLFLLLMSLAVPLVLWAGLRLGASTNPEYFTLGLGIAANNQALALLAYIGGLSAASGLIIVTTLALSGMALNHLVLPLYQPPAEGNIYRWLKWTRRALIVAIITAGFMFYLSQNYHQSLANLGIVAFVATLQFLPGVLSVLYWPTANRRGFIAGLLAGTLVWMVTMLLPLLGNLQGFYIPLLDMIYVLDDTSWHMAAIASLAANVLLFTLISLFTNASTEEVSAAEACAVDNVRRPQRRELHAASPQEFATQLAKPLGAKAAQKEVEQALRDLYLPFDERRPYALRRLRDRIEANLSGLMGPSVAQDMVETFLPYKSGNENYVTEDIHFIESRLEDYHSRLTGLAAELDALRRYHRQTLQELPMGVCSLAKDQEILMWNKAMEELTGIAAKHVVGSRLVTIDEPWRGLLQGFINVPDEHLHKQRLALDGQPRWLNLHKAAIDEPLAPGNSGLVLLVEDLTETQALEDKLVHSERLASIGRLAAGVAHEIGNPITGIACLAQNLREEREDDGEIIELSSQILDQTKRVSRIVQSLMSFAHAGGSHQNSEEPVCLAEVAQDAIGLLALNRRNFEVQFFNLCDPDHWAEGDPQRLAQVLINLLSNARDASPPGSAVRVRSEVNEHTVDLIVEDEGSGIPKNIMDRLFEPFFTTKDPGEGTGLGLALVYSIVEEHYGQITIDSPADIERQRGTRIRVTLPRHVVATSPEIRDRREN
notes: full length, 109 kDa predicted
- Km [6]: 0.7 ± 0.2 µM

B2: SLC5 domain of CbrA (Pseudomonas putida KT2440) (protein)
chain: MSFSLTQMILISAGYLMVLFGVAWISERGLIPRSIIRHPLTYTLSLGVYASAWAFYGSVGLAYQYGYGFLACYLGVSGAFLLAPVLLYPILKITRTYQLSSLADLLAFRFRSTWAGALTTIIMLIGVLPLLALQIQAVADSISILTGEPVKARVAFAFCTLIILFTIFFGSRHIATREKHEGLVFAIAFESVIKLLALGGIGLYALYGVFGGPHELEVWLLQNQTALAALHTPLQEGPWRTLLLVFFASAIVMPHMYHMAFTENLNPRSLVSASWGLPLFLLLMSLAVPLVLWAGLRLGASTNPEYFTLGLGIAANNQALALLAYIGGLSAASGLIIVTTLALSGMALNHLVLPLYQPPAEGNIYRWLKWTRRALIVAIITAGFMFYLSQNYHQSLANLGIVAFVATLQFLPGVLSVLYWPTANRRGFIAGLLAGTLVWMVTMLLPLLGNLQGFYIPLLDMIYVLDDTSWHMAAIASLAANVLLFTLISLFTNASTEEVSAAEACAVDNVRRPQRRELHAASPQEFATQLAKPLGAKAAQKE
notes: SLC5 transporter domain, residues 3-544
- Km [6]: 0.58 ± 0.18 µM
